The source of these data is the NIST ThermoML archive (doi:10.1016/j.jct.2016.09.028).

± gives the expanded uncertainty stated by the source.

For data set [1] the following is noted: 100 kPa, Liquid; for speed of sound: Frequency=3 MHz, Sing-around technique in a fixed-path interferometer; for mass density: Vibrating tube method.
Data set [2] in a line: xn = mol fraction of the nth substance listed. As to conditions: 100 kPa, Liquid, x1 = 1; for speed of sound: Frequency=3 MHz, Sing-around technique in a fixed-path interferometer; for mass density: Vibrating tube method.

A word on the speed of sound: it is how fast a sound wave travels through the sample. A word on the mass density: it is the mass of a sample divided by its volume. `CCn1cc[n+](C)c1.F[B-](F)(F)F` [1-ethyl-3-methylimidazolium tetrafluoroborate]: the speed of sound is 1632.6 ± 2.4 m/s in data set [1] (293.15 K), 1609.5 ± 2.4 m/s in data set [1] (303.15 K), 1586.2 ± 2.4 m/s in data set [1] (313.15 K) and 1563.4 ± 2.3 m/s in data set [1] (323.15 K). In addition, the mass density in data set [1] (293.15 K) was 1283.64 ± 1.7 kg/m3; in data set [1] (303.15 K) it was 1276.12 ± 1.7 kg/m3; in data set [1] (313.15 K) it was 1268.57 ± 1.6 kg/m3; in data set [1] (323.15 K) it was 1261.04 ± 1.6 kg/m3.
On to `CCn1cc[n+](C)c1.F[B-](F)(F)F` [1-ethyl-3-methylimidazolium tetrafluoroborate] + Nc1ccccc1, for which the speed of sound in data set [2] (293.15 K) is given as 1632.6 ± 2.4 m/s; in data set [2] (303.15 K), 1609.5 ± 2.4 m/s; in data set [2] (313.15 K), 1586.2 ± 2.4 m/s; in data set [2] (323.15 K) it was 1563.4 ± 2.3 m/s. The mass density in data set [2] (293.15 K) was determined as 1283.64 ± 1.7 kg/m3; in data set [2] (303.15 K) it was 1276.12 ± 1.7 kg/m3; in data set [2] (313.15 K) it was 1268.57 ± 1.6 kg/m3; in data set [2] (323.15 K), 1261.04 ± 1.6 kg/m3.
